In patent US7906546B2, “Tetrahydrocarbazoles and derivatives” (Hoffmann-La Roche Inc., priority 2004, dated 2011):

Columns and labels:
human LXRα = biological target: T1, human LXRα (Homo sapiens, UniProt Q13133); experiment: Radioligand binding assay (scintillation proximity), LXRalpha; conditions: GST-LXRα-LBD on SPA beads, radioligand displacement
T1 construct: human LXRα (aa 164 to 447); made in house; host or cells: E. coli BL21(pLysS)
T1 sequence (Q13133 164-447): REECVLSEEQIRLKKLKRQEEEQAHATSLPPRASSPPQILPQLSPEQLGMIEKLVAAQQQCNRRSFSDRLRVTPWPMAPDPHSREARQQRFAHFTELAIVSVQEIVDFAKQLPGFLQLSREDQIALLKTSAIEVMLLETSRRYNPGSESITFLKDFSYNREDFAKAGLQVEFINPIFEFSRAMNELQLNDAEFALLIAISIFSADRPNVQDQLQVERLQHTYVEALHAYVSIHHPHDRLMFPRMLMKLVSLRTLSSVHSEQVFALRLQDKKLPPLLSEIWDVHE
Method: (§1) Mammalian expression vectors were constructed to express full-length human LXRα and LXRβ. […] To accomplish this, the portions of the sequences encoding the LBDs were amplified from full-length clones by PCR and then subcloned into the plasmid vectors.
(§2) Induction, expression, and purification of GST-LBD fusion proteins were performed in E. coli strain BL21(pLysS) cells by standard methods (Ref: Current Protocols in Molecular Biology, Wiley Press, edited by Ausubel et al).
(§3) LXRα and LXRβ receptor binding were assayed in buffer consisting of 50 mM HEPES, pH 7.4, 10 mM NaCl, 5 mM MgCl2. For each 96-well reaction, 500 ng of GST-LXRα-LBD or 700 ng of GST-LXRβ-LBD fusion proteins were bound to 80 μg or 40 μg SPA beads (Pharmacia Amersham) respectively, in a final volume of 50 μl by shaking. The resulting slurry was incubated for 1 h at RT and centrifuged for 2 min at 1300×g. The supernatant containing unbound protein was removed, and the semi-dry pellet containing the receptor-coated beads was re-suspended in 50 μl of buffer. […] All binding assays were performed in 96-well plates and the amount of bound ligand was measured on a Packard TopCount using OptiPlates (Packard). […]

human LXRβ = biological target: T2, human LXRβ (Homo sapiens, UniProt P55055); experiment: Radioligand binding assay (scintillation proximity), LXRbeta; conditions: GST-LXRβ-LBD on SPA beads, radioligand displacement
T2 construct: human LXRβ (aa 155 to 460); made in house; host or cells: E. coli BL21(pLysS)
T2 sequence (P55055 155-460): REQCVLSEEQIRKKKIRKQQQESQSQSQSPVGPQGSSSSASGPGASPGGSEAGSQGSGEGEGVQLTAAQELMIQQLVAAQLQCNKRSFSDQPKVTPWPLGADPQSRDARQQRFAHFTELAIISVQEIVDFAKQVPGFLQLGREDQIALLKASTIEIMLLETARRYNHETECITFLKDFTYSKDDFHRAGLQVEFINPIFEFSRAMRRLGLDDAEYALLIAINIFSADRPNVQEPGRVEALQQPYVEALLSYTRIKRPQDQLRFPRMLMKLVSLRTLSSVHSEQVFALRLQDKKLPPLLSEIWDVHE
Method: as §1, §2, §3

IC50 (human LXRα) | IC50 (human LXRβ) | Structure (SMILES)
1600 nM | 270 nM | COC(=O)[C@@](C)([C@H]1CCc2c([nH]c3ccc(Cl)cc23)C1)S(=O)(=O)c1ccccc1 (racemic) [(RS,SR)-2-benzenesulfonyl-2-(6-chloro-2,3,4,9-tetrahydro-1H-carbazol-2-yl)-propionic acid methyl ester]
43 nM | 6 nM | Cc1nnc([C@@](F)([C@@H]2Cc3[nH]c4ccc(Cl)cc4c3C2)S(=O)(=O)c2cccc(N(C)C)c2)o1 (racemic) [(RS, SR) {3-[(7-chloro-1,2,3,4-tetrahydro-cyclopenta[b]indol-2-yl)-fluoro-(5-methyl-[1,3,4]oxadiazol-2-yl)-methanesulfonyl]-phenyl}-dimethyl-amine]
